Assay results as given in PubChem BioAssay (NCI).
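Exposure lasted 48 hours, with cells grown in 96-well plates and compounds tested at five concentrations. GI50 marks 50% less growth. TGI marks complete inhibition of growth.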

How the values were obtained:
Assay in all cases: inhibition of tumour cell growth, NCI panel, 48 h
[1] = tested on: RPMI-8226 leukemia
[2] = tested on: MDA-MB-435
[3] = tested on: UO-31 renal
[4] = tested on: MOLT-4 leukemia
[5] = tested on: RXF 393 renal
[6] = tested on: SNB-19 CNS
[7] = tested on: NCI-H460 lung
[8] = tested on: K-562 leukemia
[9] = tested on: MCF7 breast
[10] = tested on: SR leukemia
[11] = tested on: HCT-15 colon
[12] = tested on: SW-620 colon
[13] = tested on: PC-3 prostate
[14] = tested on: TK-10 renal
[15] = tested on: MALME-3M melanoma
[16] = tested on: HOP-92 NSCLC
[17] = tested on: U251 CNS
[18] = tested on: SF-295 CNS
[19] = tested on: SN12C renal
[20] = tested on: IGROV1 ovarian
[21] = tested on: HOP-62 NSCLC
[22] = tested on: OVCAR-5 ovarian
[23] = tested on: CCRF-CEM leukemia
[24] = tested on: SNB-75 CNS
[25] = tested on: SK-MEL-2 melanoma
[26] = tested on: NCI-H522 lung
[27] = tested on: A549 NSCLC
[28] = tested on: OVCAR-8 ovarian
[29] = tested on: KM12 colon
[30] = tested on: SF-268 CNS
[31] = tested on: MDA-MB-231 breast
[32] = tested on: HL-60(TB) leukemia
[33] = tested on: DU-145 prostate
[34] = tested on: CAKI-1 renal
[35] = tested on: SK-MEL-28 melanoma
[36] = tested on: A498 renal
[37] = tested on: SF-539 CNS
[38] = tested on: SK-OV-3 ovarian
[39] = tested on: ACHN renal
[40] = tested on: EKVX NSCLC
[41] = tested on: HT29 colon
[42] = tested on: UACC-62 melanoma
[43] = tested on: SK-MEL-5 melanoma
[44] = tested on: NCI-H23 lung
[45] = tested on: HCC-2998 colon
[46] = tested on: T-47D breast
[47] = tested on: HS 578T breast
[48] = tested on: OVCAR-4 ovarian
[49] = tested on: LOX IMVI melanoma
[50] = tested on: NCI/ADR-RES ovarian
[51] = tested on: BT-549 breast
[52] = tested on: COLO 205 colon
[53] = tested on: UACC-257 melanoma
[54] = tested on: NCI-H226 lung
[55] = tested on: OVCAR-3 ovarian
[56] = tested on: HCT-116 colon
[57] = tested on: 786-0 renal
[58] = tested on: M14 melanoma

Compound: Cc1[nH]nc2ccc(-c3nc4cnc(N5CCN(C)CC5)cn4c3Nc3ccc(F)cc3Br)cc12
- GI50 [1]: 2.16 µM
- TGI [1]: 5.07 µM
- GI50 [2]: 1.87 µM
- TGI [2]: 3.83 µM
- GI50 [3]: 1.34 µM
- TGI [3]: 2.93 µM
- GI50 [4]: 2.85 µM
- TGI [4]: 9.43 µM
- GI50 [5]: 1.57 µM
- TGI [5]: 3.2 µM
- GI50 [6]: 2.87 µM
- TGI [6]: 10.4 µM
- GI50 [7]: 2.03 µM
- TGI [7]: 4.35 µM
- GI50 [8]: 1.24 µM
- TGI [8]: 7.56 µM
- GI50 [9]: 1.48 µM
- TGI [9]: 2.9 µM
- GI50 [10]: 0.303 µM
- TGI [10]: > 100 µM
- GI50 [11]: 1.73 µM
- TGI [11]: 3.38 µM
- GI50 [12]: 2.9 µM
- TGI [12]: 11 µM
- GI50 [13]: 2.47 µM
- TGI [13]: 10.2 µM
- GI50 [14]: 2.82 µM
- TGI [14]: 8.83 µM
- GI50 [15]: 1.51 µM
- TGI [15]: 3.14 µM
- GI50 [16]: 1.59 µM
- TGI [16]: 3.67 µM
- GI50 [17]: 2.43 µM
- TGI [17]: 8.04 µM
- GI50 [18]: 1.61 µM
- TGI [18]: 3.29 µM
- GI50 [19]: 1.65 µM
- TGI [19]: 3.34 µM
- GI50 [20]: 1.69 µM
- TGI [20]: 3.46 µM
- GI50 [21]: 2.23 µM
- TGI [21]: 6.69 µM
- GI50 [22]: 2.38 µM
- TGI [22]: 7.94 µM
- GI50 [23]: 2.25 µM
- TGI [23]: 7.08 µM
- GI50 [24]: 1.22 µM
- TGI [24]: 2.57 µM
- GI50 [25]: 2.84 µM
- TGI [25]: 7.9 µM
- GI50 [26]: 2.01 µM
- TGI [26]: 4.72 µM
- GI50 [27]: 2.81 µM
- TGI [27]: 20.5 µM
- GI50 [28]: 2.29 µM
- TGI [28]: 6.31 µM
- GI50 [29]: 3.67 µM
- TGI [29]: 16.4 µM
- GI50 [30]: 1.89 µM
- TGI [30]: 4.11 µM
- GI50 [31]: 1.84 µM
- TGI [31]: 4.02 µM
- GI50 [32]: 1.79 µM
- TGI [32]: 4.81 µM
- GI50 [33]: 1.99 µM
- TGI [33]: 3.93 µM
- GI50 [34]: 2.23 µM
- TGI [34]: 6.51 µM
- GI50 [35]: 1.69 µM
- TGI [35]: 3.2 µM
- GI50 [36]: 1.32 µM
- TGI [36]: 2.78 µM
- GI50 [37]: 1.79 µM
- TGI [37]: 3.61 µM
- GI50 [38]: 2.08 µM
- TGI [38]: 5.09 µM
- GI50 [39]: 1.72 µM
- TGI [39]: 3.39 µM
- GI50 [40]: 1.87 µM
- TGI [40]: 5.39 µM
- GI50 [41]: 2.24 µM
- TGI [41]: 5.08 µM
- GI50 [42]: 1.64 µM
- TGI [42]: 3.22 µM
- GI50 [43]: 1.74 µM
- TGI [43]: 3.25 µM
- GI50 [44]: 1.83 µM
- TGI [44]: 3.6 µM
- GI50 [45]: 2.11 µM
- TGI [45]: 5.18 µM
- GI50 [46]: 1.95 µM
- TGI [46]: 5.07 µM
- GI50 [47]: 2.44 µM
- TGI [47]: 6.43 µM

Compound: CC(Nc1ncnc2ccc(-c3cnc(N)nc3)cc12)c1ccccc1 (stereo not drawn)
- GI50 [1]: 4.66 µM
- TGI [1]: 42.9 µM
- GI50 [2]: 11.1 µM
- TGI [2]: 42 µM
- GI50 [48]: 4.55 µM
- TGI [48]: 43.4 µM
- GI50 [3]: 1.29 µM
- TGI [3]: 16.4 µM
- GI50 [4]: 5.37 µM
- TGI [4]: > 100 µM
- GI50 [6]: 9.29 µM
- TGI [6]: 44.1 µM
- GI50 [7]: 4.79 µM
- TGI [7]: 31.1 µM
- GI50 [8]: 6.32 µM
- TGI [8]: > 100 µM
- GI50 [9]: 4.1 µM
- TGI [9]: 24.4 µM
- GI50 [10]: 4.08 µM
- TGI [10]: > 100 µM
- GI50 [49]: 4.26 µM
- TGI [49]: 16.9 µM
- GI50 [11]: 4.12 µM
- TGI [11]: 54.6 µM
- GI50 [50]: 9.42 µM
- TGI [50]: 47.3 µM
- GI50 [12]: 15.2 µM
- TGI [12]: 51.7 µM
- GI50 [13]: 4.05 µM
- TGI [13]: > 100 µM
- GI50 [14]: 1.59 µM
- TGI [14]: 14.2 µM
- GI50 [15]: 3.03 µM
- TGI [15]: 19.5 µM
- GI50 [51]: 2.22 µM
- TGI [51]: 12 µM
- GI50 [52]: 13.5 µM
- TGI [52]: 47.5 µM
- GI50 [16]: 1.04 µM
- TGI [16]: 5.62 µM
- GI50 [17]: 6.92 µM
- TGI [17]: 60 µM
- GI50 [18]: 4.5 µM
- TGI [18]: 27 µM
- GI50 [19]: 2.9 µM
- TGI [19]: 15.7 µM
- GI50 [20]: 1.95 µM
- TGI [20]: 8.26 µM
- GI50 [21]: 5.76 µM
- TGI [21]: > 100 µM
- GI50 [22]: 3.4 µM
- TGI [22]: 37.5 µM
- GI50 [23]: 7.7 µM
- TGI [23]: > 100 µM
- GI50 [24]: 2.76 µM
- TGI [24]: 23.1 µM
- GI50 [25]: 20.4 µM
- TGI [25]: > 100 µM
- GI50 [26]: 4.9 µM
- TGI [26]: > 100 µM
- GI50 [53]: 23.9 µM
- TGI [53]: > 100 µM
- GI50 [54]: 3.57 µM
- TGI [54]: 22 µM
- GI50 [27]: 6.48 µM
- TGI [27]: > 100 µM
- GI50 [28]: 10.8 µM
- TGI [28]: 30.2 µM
- GI50 [29]: 7.91 µM
- TGI [29]: 36.3 µM
- GI50 [30]: 5.26 µM
- TGI [30]: 34.5 µM
- GI50 [31]: 3.38 µM
- TGI [31]: 15.5 µM
- GI50 [32]: 14.8 µM
- TGI [32]: 43.7 µM
- GI50 [33]: 4.34 µM
- TGI [33]: > 100 µM
- GI50 [34]: 3.17 µM
- TGI [34]: 17.8 µM
- GI50 [35]: 9.05 µM
- TGI [35]: 53.1 µM
- GI50 [55]: 4.59 µM
- TGI [55]: 20.1 µM
- GI50 [36]: 1.42 µM
- TGI [36]: 6.52 µM
- GI50 [37]: 6.2 µM
- TGI [37]: 19.2 µM
- GI50 [56]: 8.01 µM
- TGI [56]: 24.3 µM
- GI50 [38]: 6.67 µM
- TGI [38]: > 100 µM
- GI50 [39]: 3.02 µM
- TGI [39]: 18.6 µM
- GI50 [40]: 1.97 µM
- TGI [40]: 10.4 µM
- GI50 [41]: 8.41 µM
- TGI [41]: 46.4 µM
- GI50 [42]: 4.48 µM
- TGI [42]: 18.2 µM
- GI50 [43]: 7.28 µM
- TGI [43]: 20.8 µM
- GI50 [44]: 9.2 µM
- TGI [44]: 37.4 µM
- GI50 [45]: 8.05 µM
- TGI [45]: 50.8 µM
- GI50 [57]: 5.33 µM
- TGI [57]: > 100 µM
- GI50 [46]: 1.91 µM
- TGI [46]: 46.4 µM
- GI50 [58]: 6.76 µM
- TGI [58]: 31.6 µM
- GI50 [47]: 2.15 µM
- TGI [47]: 8.64 µM
